Key:
T. cruzi = system: T. cruzi; parameters: method as in per drug in column Reference of Table 2; conditions: class of literature evidence of trypanocidal activity; ref per drug in Table 2; cited from earlier work; note: key: ? indicates unknown activity; + indicates indirect evidence of activity; ++ indicates direct evidence of activity
[1] = system: T. cruzi blood trypomastigote (Ninoa strain); assay: ex vivo evaluation against blood trypomastigotes, Ninoa strain; type: cell-based; conditions: Trypanosoma cruzi, 24 h at 4 °C
Description: (§1) The high-priority hit drugs were subjected to experimental validation in vitro, ex vivo, and in vivo, together with a cytotoxicity assay. Ninoa and INC-5 strains of T. cruzi were used in this study. The Ninoa strain was obtained in 1986 by xenodiagnoses from an acute case of Chagas’ disease in Oaxaca, Mexico, whereas the INC-5 strain was obtained in 1997 from a chronic case of Chagas’ disease in a person in Guanajuato, Mexico.
(§2) Ex vivo evaluation of different FDA-approved drugs against Trypanosoma cruzi blood trypomastigotes. The ex vivo evaluation of the trypanocidal activity of the FDA-approved drugs was carried out according to the methodology described above. Blood from parasite infected animals was obtained from intracardiac puncture and diluted with phosphate-buffered saline (PBS), pH 7.2, until a concentration of 2 × 10^6 blood trypomastigotes/mL was obtained. From this, 195 µL of blood/well was placed in a 96-well plate and incubated at 4 °C for 24 h with 5 µL of each drug tested at different concentrations (5 µg/mL to […]). […] After incubation, live parasites were counted in a Neubauer chamber and the IC50 was calculated. Three independent experiments by triplicate were performed.

[2] = system: T. cruzi blood trypomastigote (INC-5 strain); assay: ex vivo evaluation against blood trypomastigotes, INC-5 strain; type: cell-based; conditions: Trypanosoma cruzi; ex vivo, INC-5 strain, 24 h at 4 °C; read-out: T.cruzi blood trypomastigote IC50 INC-5
Description: as §1, §2

[3] = system: T. cruzi epimastigote (INC-5 strain); assay: in vitro evaluation against epimastigotes, INC-5 strain (resazurin); type: cell-based; conditions: Trypanosoma cruzi, 48 h at 28 °C
Description: (§3) The high-priority hit drugs were subjected to experimental validation in vitro, ex vivo, and in vivo, together with a cytotoxicity assay. Ninoa and INC-5 strains of T. cruzi were used in this study. […] In vitro evaluation of different FDA-approved drugs against Trypanosoma cruzi epimastigotes. The epimastigote stage of Ninoa and INC5 strains of T. cruzi were used to evaluated the in vitro trypanocidal activity of different FDA-approved drugs. Both strains were maintained in liver infusion tryptose (LIT) medium, supplemented with 10% fetal bovine serum (FBS) and 0.1% penicillin–streptomycin. They were preserved by transferring 1 × 10^6 parasites/mL into a new culture medium every week. […] All compounds were initially prepared at 10 mg/mL, using dimethyl sulfoxide (DMSO) as diluent. Serial dilutions were performed using complemented LIT medium until concentrations of 100 to 0.46 µg/mL of each drug were obtained. […] After the incubation period, 20 µL of 2.5 mM resazurin solution were added to each well and incubated for 3 h. All assays were carried out in triplicate.

[4] = system: T. cruzi epimastigote (Ninoa strain); assay: in vitro evaluation against epimastigotes, Ninoa strain (resazurin); type: cell-based; conditions: Trypanosoma cruzi, 48 h at 28 °C
Description: as §3

T. cruzi INC-5 strain = assay: in vivo short-term trypanocidal activity (parasitemia) in infected CD1 mice, INC-5 strain; parameters: species or system Trypanosoma cruzi in CD1 mice; conditions: for Parasitemia inhibition percentage over the time, 2 horas INC-5 / Parasitemia inhibition percentage over the time, 4 horas INC-5 / Parasitemia inhibition percentage over the time, 6 horas INC-5: 100 mg/kg oral; for parasitemia inhibition: mice infected with INC-5 strain, single oral dose 100 mg/kg, eight hours after administration
Method: (§4) Parasitemia was monitored at 2, 4, 6, and 8 h after administration (see Figure 2).
(§5) CD1 strain mice, 6–8 weeks old, were used to maintain Ninoa and INC-5 strains of T. cruzi. Animals were given by the University of Science and Arts of Chiapas. To maintain the strains, animals were intraperitoneally inoculated every 14 days with 1 × 10^5 blood trypomastigote, obtained from parasite-infected mice. Parasitemia was monitored every three days by the Pizzi method. For this, 5 µL of blood from the caudal vein of infected mice were deposited on a slide and evenly distributed with an 18 × 18 mm coverslip. Parasite counting was performed by observing 15 microscopic fields using a 40 × objective lens. For the in vivo short term evaluation of the trypanocidal activity of the FDA-approved drugs, six groups of six CD1 mice each with homogeneous weight and parasitemia were used.
(§6) In vivo short-term evaluation of the trypanocidal activity of the FDA-approved drugs. Six groups of six CD1 female mice were infected with blood trypomastigotes of Ninoa and INC-5 strains following the methodology previously described in Romanha et al. and in Díaz-Chiguer et al.. At day 13 post-infection, when the infected mice reached an average of 5 × 10^6 parasites/mL, a single dose of the FDA-approved drugs at 100 mg/kg body weight was orally administered. Parasitemia was monitored following the Pizzi method at 2, 4, 6, and 8 h post-treatment […] using mineral oil as a vehicle. […] Mice examination was performed as stated in the Norma Official Mexicana (NOM-062-Z00-1999), published on August 2009.

T. cruzi Ninoa strain = assay: in vivo short-term trypanocidal activity (parasitemia) in infected CD1 mice, Ninoa strain; parameters: species or system Trypanosoma cruzi in CD1 mice; conditions: for Parasitemia inhibition percentage over the time, 2 horas Ninoa / Parasitemia inhibition percentage over the time, 4 horas Ninoa / Parasitemia inhibition percentage over the time, 6 horas Ninoa: 100 mg/kg oral; for parasitemia inhibition: mice infected with Ninoa strain, single oral dose 100 mg/kg, eight hours after administration
Method: as §4, §5, §6

T. cruzi epimastigotes = system: T. cruzi epimastigotes; parameters: method as in PMID 32560043; conditions: cited from earlier work
[5] = 6 horas (first column so headed)
[6] = 6 horas (second, last column so headed)

In the case of COc1cccc2c1C(=O)c1c(O)c3c(c(O)c1C2=O)C[C@@](O)(C(C)=O)C[C@@H]3O[C@H]1C[C@H](N)[C@H](O)[C@H](C)O1 [Aunomycin], the “Trypan. Activity” value (T. cruzi) is listed as “+”.

In the case of O=C(Cn1ccnc1[N+](=O)[O-])NCc1ccccc1 [Benznidazole], the IC50 [1] is reported as 156 ± 0.11 µM, the IC50 [2] is reported as 130.6 ± 0.08 µM and the IC50 [3] is reported as 19.9 ± 0.23 µM.

In the case of O=C(O)c1ccccc1 [Benzoic acid], the “Trypan. Activity” value (T. cruzi) is listed as “++”.

In the case of Cc1ccc(-c2cc(C(F)(F)F)nn2-c2ccc(S(N)(=O)=O)cc2)cc1 [Celecoxib], the IC50 [1] is reported as over 100 µM, the IC50 [2] is reported as over 100 µM and the IC50 [3] is reported as over 400 µM. It also gave an IC50 [4] of over 400 µM.

For CN(C)CCCC1(c2ccc(F)cc2)OCc2cc(C#N)ccc21 (centres unmarked) [Citalopram], the “Trypan. Activity” value (T. cruzi) is listed as “++”.

In the case of Nc1nc(=O)c2nc(CNc3ccc(C(=O)N[C@@H](CCC(=O)O)C(=O)O)cc3)cnc2[nH]1 [Folic acid], the “Parasitemia inhibition percentage over the time, 2 horas INC-5” value (T. cruzi INC-5 strain) is reported as 100, the “Parasitemia inhibition percentage over the time, 4 horas INC-5” value (T. cruzi INC-5 strain) is reported as 50 and the “Parasitemia inhibition percentage over the time, 6 horas INC-5” value (T. cruzi INC-5 strain; [5]) is reported as 33.3. The “Parasitemia inhibition percentage over the time, 6 horas INC-5” value (T. cruzi INC-5 strain; [6]) was 33.3, the parasitemia inhibition (T. cruzi INC-5 strain) was 66.7% and the IC50 [1] was 28.1 ± 0.01 µM. The IC50 [2] was 21.5 ± 0.03 µM, the IC50 [3] was over 400 µM and the “Parasitemia inhibition percentage over the time, 2 horas Ninoa” value (T. cruzi Ninoa strain) was 100. The “Parasitemia inhibition percentage over the time, 4 horas Ninoa” value (T. cruzi Ninoa strain) was 71, the “Parasitemia inhibition percentage over the time, 6 horas Ninoa” value (T. cruzi Ninoa strain; [5]) was 42.8 and the “Parasitemia inhibition percentage over the time, 6 horas Ninoa” value (T. cruzi Ninoa strain; [6]) was 42.8. It also gave a parasitemia inhibition (T. cruzi Ninoa strain) of 57.2% and an IC50 [4] of over 400 µM.

In the case of O=C(O)P(=O)(O)O [Foscarnet], the “Trypan. Activity” value (T. cruzi) is given as “++”.

In the case of Cc1cnc(C(=O)NCCc2ccc(S(=O)(=O)NC(=O)NC3CCCCC3)cc2)cn1 [Glipizide], the “growth inhibitory activity on T. cruzi epimastigotes” value (“growth inhibitory activity” below) (T. cruzi epimastigotes) is given as “micromolar range”.

For COc1ccc2c(c1)C(=O)N(CCc1ccc(S(=O)(=O)NC(=O)NC3CCCCC3)cc1)C(=O)C2(C)C [Gliquidone], the “growth inhibitory activity” value (T. cruzi epimastigotes) is listed as “micromolar range”.

N[C@@H](CCC(=O)N[C@@H](CS)C(=O)NCC(=O)O)C(=O)O [Glutathione] gave an IC50 [1] of over 100 µM, an IC50 [2] of over 100 µM and an IC50 [3] of over 400 µM. For the same molecule, the IC50 [4] was over 400 µM.

In the case of COc1ccc(Cl)cc1C(=O)NCCc1ccc(S(=O)(=O)NC(=O)NC2CCCCC2)cc1 [Glyburide], the “growth inhibitory activity” value (T. cruzi epimastigotes) is listed as “micromolar range”.

In the case of CC1=C(/C=C/C(C)=C/C=C/C(C)=C\C(=O)O)C(C)(C)CCC1 [Isotretinoin], the “Trypan. Activity” value (T. cruzi) is listed as “++”.

Nc1nc2c(c(=O)[nH]1)N(C=O)C(CNc1ccc(C(=O)N[C@@H](CCC(=O)O)C(=O)O)cc1)CN2 (some centres unmarked) [Leucovorin] gave an IC50 [1] of over 100 µM, an IC50 [2] of over 100 µM and an IC50 [3] of over 400 µM. The IC50 [4] was over 400 µM.

For CC12CC3CC(C)(C1)CC(N)(C3)C2 [Memantine], the “Trypan. Activity” value (T. cruzi) is given as “++”.

For CN(C)c1ccc(O)c2c1C[C@H]1C[C@H]3[C@H](N(C)C)C(O)=C(C(N)=O)C(=O)[C@@]3(O)C(O)=C1C2=O [Minocycline], the “Trypan. Activity” value (T. cruzi) is given as “++”.

In the case of COc1ccc2cc([C@H](C)C(=O)O)ccc2c1 [Naproxen], the “Parasitemia inhibition percentage over the time, 2 horas INC-5” value (T. cruzi INC-5 strain) is reported as 100, the “Parasitemia inhibition percentage over the time, 4 horas INC-5” value (T. cruzi INC-5 strain) is reported as 85.7 and the “Parasitemia inhibition percentage over the time, 6 horas INC-5” value (T. cruzi INC-5 strain; [5]) is reported as 71.4. For the same molecule, the “Parasitemia inhibition percentage over the time, 6 horas INC-5” value (T. cruzi INC-5 strain; [6]) was 57.1, the parasitemia inhibition (T. cruzi INC-5 strain) was 42.9% and the IC50 [1] was 58.5 ± 0.07 µM. For the same molecule, the IC50 [2] was 38.3 ± 0.06 µM, the IC50 [3] was over 400 µM and the “Parasitemia inhibition percentage over the time, 2 horas Ninoa” value (T. cruzi Ninoa strain) was 100. For the same molecule, the “Parasitemia inhibition percentage over the time, 4 horas Ninoa” value (T. cruzi Ninoa strain) was 71, the “Parasitemia inhibition percentage over the time, 6 horas Ninoa” value (T. cruzi Ninoa strain; [5]) was 28.5 and the “Parasitemia inhibition percentage over the time, 6 horas Ninoa” value (T. cruzi Ninoa strain; [6]) was 14.2. The parasitemia inhibition (T. cruzi Ninoa strain) was 85.8% and the IC50 [4] was over 400 µM.
